# Experimental data: patent US20160095867A1, “BET INHIBITION THERAPY FOR HEART DISEASE” (DANA-FARBER CANCER INSTITUTE, INC., priority 2013, published 2016)
# System: NRVM
# Experiment: PE-mediated cardiomyocyte hypertrophy in NRVM (cell area measurement)
# Assay type: cell-based, rat
# Conditions: equimolar doses (500 nM), PE 100 μM, 48 hours
# Description: NRVM were isolated from the hearts of 2 day old Sprague-Dawley rat pups (Charles River) and maintained under standard conditions as described (Haldar et al., 2010). The cells were differentially plated for 1.5 h in cell culture dishes to remove contaminating non-myocytes. Unless otherwise stated, NRVM were plated at a density of 10^5 cells/mL. Cells were initially plated in growth medium (DMEM supplemented with 5% FBS, 100 U/mL penicillin-streptomycin, and 2 mM L-glutamine) for 24-36 hours and maintained in serum-free media thereafter (DMEM supplemented with 0.1% BSA, 1% insulin-transferrin-selenium liquid media supplement (Sigma 13146), 100 U/mL penicillin-streptomycin, and 2 mM L-glutamine). Media was changed every 2-3 days. Prior to stimulation with agonists, NRVM were maintained in serum-free medium for 48-72 hours. For hypertrophic stimulation, NRVM were incubated with JQ1 versus DMSO at indicated concentrations for 6 h followed by stimulation with PE (100 μM) for indicated timepoints.
# NRVM were plated on glass coverslips in 6-well dishes at a density of 10^5 cells/mL. After treatments, cells were briefly fixed in PBS containing 2% PFA, permeabilized with PBST/0.1% Triton X-100, and blocked in PBST/5% horse serum. Primary antibody was anti-sarcomeric α-actinin (Sigma A7811) at 1:800. Fluorophore-tagged anti-mouse secondary antibody (α-mouse Alexa 488 green) was used at 1:1000 dilution. Coverslips were mounted on glass slides with mounting media containing DAPI. Quantitation of cardiomyocyte cell surface area was performed on α-actinin-stained cardiomyocytes using fluorescent microscopy and NIH Image J software as previously described (Liang et al., 2001). Analysis consisted of at least 100 cardiomyocytes in 20-30 fields at 400× magnification. This process was replicated in a least three independent experiments, and the data were combined.
row,Structure (SMILES),inhibition of agonist-induced cardiomyocyte hypertrophy (cell area)
1,COc1cc(OC)c2c(=O)[nH]c(-c3cc(C)c(OCCO)c(C)c3)nc2c1 [RVX-208],inhibition of agonist-induced cardiomyocyte hypertrophy was indeed a class effect
2,COc1cc2c(cc1-c1c(C)noc1C)ncc1[nH]c(=O)n([C@H](C)c3ccccn3)c12 [iBET-151],inhibition of agonist-induced cardiomyocyte hypertrophy was indeed a class effect
3,CCNC(=O)C[C@@H]1N=C(c2ccc(Cl)cc2)c2cc(OC)ccc2-n2c(C)nnc21 [iBET],inhibition of agonist-induced cardiomyocyte hypertrophy was indeed a class effect
